Assays:
[1] = test system: Moderate-to-Severe TBI in the Sprague Dawley Rat; experiment: Extracellular Vesicle (EV) isolation and measurement after lateral fluid percussion TBI; assay type: in vivo; settings: plasma EVs 1 day post-surgery, NTA
Description: (§1) Evaluation of 3,3′-diindolylmethane (DIM) in a clinically relevant animal model of Traumatic Brain Injury (TBI) utilized the Lateral Fluid Percussion (LFP) brain injury method. LFP is the most established and frequently used method for evaluating mixed focal and diffuse brain injury (Thompson H J, Lifshitz J, Marklund N, Grady M S, Graham D I, Hovda D A, McIntosh T K. Lateral fluid percussion brain injury: a 15-year review and evaluation. J Neurotrauma. 2005 January; 22(1):42-75.). Using rats, the parasagittal LFP model recreates the physiological, pathological, and neurobehavioral sequela of TBI in humans. […] Over the days following surgery, rats were assessed for sensorimotor deficits, associative learning and memory, cortical and hippocampal edema, Extracellular Vesicle (EV) levels, and histopathological damage. […]
(§2) Approximately 12-24 h after the preparation surgery, the rats were anesthetized with 3% isoflurane, 70% nitrous oxide and 30% oxygen, intubated, connected to a respirator, and ventilated to be maintained on 1-3% isoflurane in a mixture of 70% nitrous oxide and oxygen. […] Following administration of pancuronium, TBI DIM Premix and Vehicle group rats inspired oxygen was reduced to 21% to maintain blood pO2 levels at approximately 85-95 mmHg. pCO2 levels were monitored to remain at physiological levels of 34 to 46 mmHg. […]

[2] = test system: Moderate-to-Severe TBI in the Sprague Dawley Rat; experiment: Histology analysis (H&E, NeuN) after lateral fluid percussion TBI; assay type: in vivo; settings: 10 days post FPI
Description: as §1, §2

[3] = Eur. J. Pharmacol. 2022; 919:174812; cited from earlier work
[4] = Solubility of aripiprazole in the SMEDDS DIM formulation
[5] = Clin. Cancer Res. 10:5233-5241 (2004); cited from earlier work

c1ccc2c(Cc3c[nH]c4ccccc34)c[nH]c2c1 [DIM, 3,3′-diindolylmethane]
EV concentration (numbers) ([1]; versus TBI Vehicle, p=0.0415): prevented the significant increase in EV numbers | EV particle size ([1]; versus untreated TBI animals, p=0.0117): maintenance of a larger EV particle size | Animals with cortical contusion absent [2]: 50% | Anti-thrombotic activity [3]: anti-thrombotic activity | Bleeding time [3]: prolong bleeding time

O=C1CCc2ccc(OCCCCN3CCN(c4cccc(Cl)c4Cl)CC3)cc2N1 [aripiprazole]
Solubility of the aripiprazole in the SMEDDS DIM formulation [4]: approximately 1.5% | Dissolution of aripiprazole in SMEDDS DIM, observation ([4]; 1.2% (10 mg aripiprazole, 0.81 grams SMEDDS DIM), stored overnight, warmed to about 35 degrees C.): all had dissolved | Aripiprazole still in suspension ([4]; 2.0% (10 mg aripiprazole, 0.49 grams SMEDDS DIM)): less than 2 mg | Dissolution of aripiprazole in SMEDDS DIM, observation ([4]; 2.0% (10 mg aripiprazole, 0.49 grams SMEDDS DIM), stored overnight, warmed to about 35 degrees C.): had not quite dissolved | Dissolution of aripiprazole in SMEDDS DIM, observation ([4]; 5.0% (25 mg aripiprazole, 0.475 grams SMEDDS DIM)): white solids clearly present | Dissolution of aripiprazole in SMEDDS DIM, observation ([4]; 10% (50 mg aripiprazole, 0.45 grams SMEDDS DIM)): white solids clearly present | Dose of aripiprazole that can be dissolved ([4]; in standard dose of 100 mg DIM contained in 825 mg of the SMEDDS DIM): up to 10 mg

OCc1c[nH]c2ccccc12 [indole-3-carbinol]
Conversion in vivo [5]: converts to DIM and LTR in vivo

— patent US12171745B2, “Compositions and methods for treating non-hemorrhagic closed head injury” (Boulder BioScience LLC, priority 2022, dated 2024)
